The text below walks through data of patent US5164406A, “Method for enhancing transdermal penetration and compositions useful therein” (priority 1989, dated 1992).

Counter-ions that a name gives are not always drawn. Like-named read-outs stand apart in the source and are kept apart here.

For data set [1] the following is noted: general statement; cited from earlier work.
Data set [2] in a line: Pig skin (in vitro) transdermal penetration. The data set is classed as in vitro ADME, Yucatan miniature pig. On the procedure:
The test procedure is as described for rat skin studies with the exception that excised pig skin samples from Yucatan miniature pigs are utilized.
To address this issue, in vitro skin penetration of tripelennamine (TPL) in 2 saturated aqueous solutions, was measured using pig skin in accordance with the Pig Skin (in vitro) procedure earlier outlined. One solution contained 0.5% IMI. The other solution served as an aqueous control (buffered with NaOH to the same pH as the IMI containing solution).
Since all skin sections are dermatomed to 380 microns, h is a constant. In each composition of Table 5, the vehicle was saturated with the pharmacologic agent. Therefore, the "leaving tendency", or the thermodynamic activity of the pharmacologic agent in the vehicle, remained unchanged (K is the same for both compositions). this means that D must increase in order to explain the 3-fold increase in transdermal penetration. This is indicative of a true enhancement effect of topically applied IMI. The results of Table 5, substantiate that IMI acts as a true skin penetration enhancer. […] This may be one reason why use of a transdermal penetration enhancing amount of a selected imidazole or imidazole derivative of the present invention, in conjunction with a pharmacologically active agent whose transdermal penetration is capable of being enhanced, affords the advantageous enhancement of penetration achieved by the present invention.

For data set [3] the following is noted: for Increase in penetration relative to control: multiple of average control determination. The protocol: Polyoxyethylene stearyl ethers, 3 wt. %
Polyoxypropylene fatty alcohol ethers, 3 wt. %
Deionized water, 94 wt. %
Further, in all cases, unless otherwise noted, the tests were carried out at 37° C. and results were compared to penetration data for the same material in the oil/water emulsion base. Moreover, all percentages of composition components recited are, unless otherwise indicated, weight percent (wt. %) and are based upon the total weight of the composition.
The test method is carried out as follows:
A. Prior to testing, rats are routinely acclimated to the laboratory environment for seven days and gross observations are made to ensure good health of the animals to be tested.
B. Female Sprague Dawley rats (190-240 gm) are selected for testing and identified by cage label and ear tag number.
C. Diffusion Cell Preparation.
1. An O-ring is placed on a standard Franz Diffusion Cell. A stir bar is placed in the receptor compartment. Each cell is filled with approximately 4.5 ml sterile physiologic saline (receptor compartments are calibrated to contain 5.0 ml).
2. The jacketed diffusion cells are maintained at 37° C.±1° (or alternatively desired temperature) using an external water bath and a circulating pump.
D. Skin Section Preparation and Mounting
1. Test animals are sacrificed by intraperitoneal injection of 0.4 ml/100 gm. body weight sodium pentobarital (1 gm/ml).
2. The backs are lightly shaved using electric hair clippers.
3. A section of skin, measuring approximately 8 cm long by 7 cm wide, is removed from the back of each rat using a No. 20 scalpel assuring that the skin section is free from subcutaneous fat.
4. A piece of the skin section is mounted over an O-ring on the diffusion cell, epidermal side facing up. The donor compartment is placed on top of the skin section making a complete seal over the skin. A clamp is used to secure the skin section in place.
5. Air bubbles that collect under the skin are removed by inverting the diffusion cell and tapping it gently. The receptor compartment is filled with sterile physiologic saline to 5.0 ml.
E. Application of Test Materials
1. Test and control materials are applied to the skin using s syringe or spatula. The material is spread evenly and completely over the exposed skin surface using the tip of the syringe/spatula.
1. An HPLC carousel is loaded with microvials. Springs and inserts are placed into the microvials.
2. Receptor compartments are sampled at desired time intervals using a microliter (μl) syringe. The sample (approximately 160 μl) is placed into the insert. The microvial is sealed with a plastic cap.
3. When multiple sampling is required, the receptor compartment is replenished with sterile physiologic saline to maintain a 5.0 ml volume.
Samples are analyzed using standard analytical techniques. The presence of test material in the samples is indicative of transdermal penetration.

The conditions of data set [4]: cited from earlier work.
The nature of data set [5]: Human skin (in vitro) transdermal penetration. The data set is classed as in vitro ADME. The following applies: Table 4. The source says: The test procedure is as described for rat skin studies with the exception that normal excised human skin samples obtained from breast reduction surgery are utilized.
As shown by the results of Table 4, imidazole enhanced xylometazoline penetration through human skin 5.3 fold.

Where [6] appears, read: B + 1% drug + 0.5% IMI, Table 3.
The mark [7] stands for this setting: B + 5% TPL + 5% XYL, Table 3 Study I.
The mark [8] stands for this setting: B + 5% TRP + 5% XYL, Table 3 Study II.

`Cn1cc[n+](C)c1` [Compound Ia]: the Heat stability result in data set [1] is “unstable to heat”.

In the case of `c1c[nH]cn1` [IMIDAZOLE, imidazole], the “Increase in skin permeation of TPL” value in data set [2] (0.5% IMI in saturated aqueous TPL solution) is listed as 3 fold. For the same compound, the “24 hour penetration of tripelennamine HCl (total micrograms base)” value is 208 micrograms base in data set [3] (2% TPL in B + 0.01% imidazole), 413 micrograms base in data set [3] (2% TPL in B + 0.1% imidazole) and 662 micrograms base in data set [3] (2% TPL in B + 1.0% imidazole). The “TPL penetration increased as compared to the control” value in data set [3] (2% TPL in B, imidazole up to 1.0%, Table 1) is reported as “approximately 340%”. For the same compound, the “Increase in penetration relative to control” value in data set [3] (2% TPL in B + 0.01% imidazole) is reported as 1.1; in data set [3] (2% TPL in B + 0.1% imidazole), 2.1; in data set [3] (2% TPL in B + 1.0% imidazole), 3.4.

For `CN(C)CCN(Cc1ccccc1)c1ccccn1` [TPL, TRIPELENNAMINE HCL, reference compound], the “Increase in skin permeation of TPL” value in data set [2] was “approximately 3 fold”. Moreover, the “24 hour penetration (total micrograms base)” value in data set [2] (aqueous control: saturated TPL/H2O, buffered with NaOH to the same pH, Table 5) came to 132 micrograms base; in data set [2] (saturated TPL/H2O + 0.5% IMI, Table 5), 363 micrograms base; in data set [3] it was 196 micrograms base. Moreover, the “Increase in penetration relative to control” value in data set [2] (multiple of average control determinations, saturated TPL/H2O + 0.5% IMI, Table 5) is recorded as 2.75. The Skin irritation result in data set [4] (IPM at 0.5%) is given as “little or no skin irritation”; in data set [4] (IPM levels sufficient to enhance transdermal penetration) it was “generally are irritating to skin”. In addition, in data set [3], the “Increase in TPL penetration” value is given as 270%. Moreover, the “Penetration of TPL enhanced by” value in data set [3] was 1190%.

For `Cc1cc(C(C)(C)C)cc(C)c1CC1=NCCN1` [XYL, XYLO[…], HCL, reference compound], the “Penetration enhanced by imidazole” value in data set [3] (1% drug with 0.5% imidazole, Table 3 Studies V and VI) was 610%. The “24 hour penetration (total micrograms base)” value was found to be 613 micrograms base in data set [3] (setting [6]); 444 micrograms base in data set [3] (setting [7]); 1053 micrograms base in data set [3] (setting [8]); 100 micrograms base in data set [3] (control: 1% of the drug alone in B, Table 3); 544 micrograms base in data set [3] (control: 5% of the drug alone in B, Table 3); 203 micrograms base in data set [5] (B + 2% XYL + 0.5% IMI). In addition, in data set [5] (control: B + 2% XYL), the “24 hour penetration (total micrograms base)” value is 38 micrograms base. In data set [3] (combination of TPL and XYL vs XYL alone, Table 3 Study I), the “Penetration of XYL” value is listed as “remained fairly constant”. Further, the “Increase in transdermal penetration” value in data set [3] (combination of TRP and XYL, Table 3 Study II) is given as 90%. Moreover, the “Increase in penetration relative to control” value in data set [3] (setting [6]) is reported as 6.1; in data set [3] (setting [7]), 0.8; in data set [3] (setting [8]) it was 1.9; in data set [5] (multiple of average control determination, B + 2% XYL + 0.5% IMI), 5.3. Besides, in data set [5] (2% XYL with 0.5% imidazole), the “Imidazole enhanced xylometazoline penetration through human skin” value is given as 5.3 fold.

For `Cn1ccn(C)c1=O` [compound IIa], in data set [1], the Heat stability entry is “heat stable”.
